Results: a melting point compilation (Tetko et al.)

melting point | SMILES
118 to 120 °C | COc1ccc(CCl)cc1S(C)(=O)=O
215 to 217 °C | Nc1ncc2c(n1)CCC1(C2)OCCO1
159 to 161 °C | COC(=O)c1ccc(C(=O)c2cc[nH]c2)cc1
199 to 201 °C | NC(=O)Nc1ccccc1Br
160 to 162 °C | CCc1ccc(C(N)=NO)cc1
102 to 104 °C | Oc1c(Cl)c(F)nc(F)c1Cl
219 to 221 °C | O=C1NCCCCC1Oc1ccc(O)cc1 (stereo not drawn)
94 to 96 °C | Cc1c(N)cccc1COc1ccccc1
239 to 241 °C | O=C(Nc1cn[nH]c1)c1ccncc1
123 to 125 °C | FC(F)(F)Oc1ccc(-n2nnnc2S)cc1
134 to 138 °C | CC(C)CNC(N)=O
237 to 239 °C | CN(CC(=O)O)c1ncnc2nc[nH]c12
47 to 49 °C | COC(=O)C(=CN(C)C)C(C)=O
56 to 59 °C | CC(C(=O)O)n1cc(Cl)cn1 (stereo not drawn)
205 to 207 °C | COc1ccc(Cn2ncc3cc(C(=O)O)cnc32)c(OC)c1
161 to 163 °C | O=C(O)C1CCC(NC(=O)C2CCCC2)CC1 (stereo not drawn)
314 to 316 °C | O=C(O)c1ccnc(-n2cncn2)c1
219 to 221 °C | Nc1c(C(=O)O)cc(F)cc1[N+](=O)[O-]
93 to 95 °C | CC(C)c1noc(-c2cc(Cl)ccc2N)n1
106 to 108 °C | COc1ccc(C(=O)Cc2ccc(F)cc2)cc1
93 to 95 °C | COc1cccc(C(C[N+](=O)[O-])c2c[nH]c3ccccc23)c1 (stereo not drawn)
195 to 197 °C | CC(=O)N(c1nc(/C=C\C(=O)O)cs1)c1ccccc1F
278 to 280 °C | Nc1nc(-c2ccc([N+](=O)[O-])cc2)n[nH]1

melting point | SMILES
98 to 100 °C | Nc1nc(-c2ccc(Cl)s2)cs1
115 to 119 °C | O=Cc1ccc(OCC(=O)c2ccccc2)cc1
104 to 106 °C | CCOC(=O)c1cc(C)sc1NC(=O)CCl
46 to 48 °C | CN(c1ccc(CN)cc1)S(C)(=O)=O
137 to 139 °C | COc1ccc(S(N)(=O)=O)cc1C
96 to 98 °C | Nc1cc(C(F)(F)F)c[nH]c1=O
163 to 165 °C | CC1(c2ccc(C(N)=O)cc2)NC(=O)NC1=O (stereo not drawn)
68 to 70 °C | CC1CCN(Cc2ccccc2)c2ccccc2N1 (stereo not drawn)
79 to 81 °C | NNC(=O)NCC1CCCO1 (stereo not drawn)
96 to 98 °C | CC1(NC(=O)CCl)CCS(=O)(=O)C1 (stereo not drawn)
128 to 130 °C | CC(C)C(=O)Nc1cccc(F)c1C(=O)O
58 to 60 °C | CC(=O)c1ccc(N)cc1Cl
168 to 170 °C | O=S(=O)(Nc1ccc2cn[nH]c2c1)c1ccc2c(c1)CCC2
117 to 119 °C | CC(C)(C)OC(=O)N1C[C@H](C(=O)O)[C@@H](C(F)(F)F)C1
160 to 162 °C | Cc1c(-c2ccncc2)n[nH]c1N
216 to 218 °C | CC(C)c1[nH]ncc1C(=O)O
249 to 251 °C | Cc1ccc(O)c(C(=O)Nc2ccncc2)c1
199 to 201 °C | O=C(O)c1sccc1-c1ccc(F)cc1
114 to 116 °C | O=C1CCc2c(F)cc(Br)cc21
97 to 99 °C | O=C(O)CS(=O)(=O)CCCc1ccccc1
132 to 134 °C | NS(=O)(=O)NCC1CCCNC1 (stereo not drawn)
286 to 288 °C | Nc1ccc2c(c1)C(=O)NS2(=O)=O
152 to 155 °C | O=C(O)CSc1nnc(-c2ccco2)o1

melting point | SMILES
218 to 220 °C | Cc1cc2oc(=O)cc(CCl)c2cc1Cl
259 to 261 °C | CN(C)c1cc(C(=O)O)c2ccccc2n1
143 to 145 °C | O=C(O)C1(c2cccc(Br)c2)CC1
114 to 116 °C | Cc1ccsc1C(=O)CC#N
192 to 194 °C | CC(Sc1ncccc1C(=O)O)C(=O)N1CCCC1 (stereo not drawn)
98 to 100 °C | Cc1ccc(-n2c(C)nnc2S)cc1
77 to 79 °C | CC1CC(C)(C)NC1=O (stereo not drawn)
146 to 148 °C | O=CN1CCc2cc(C(=O)CCl)ccc21
120 to 122 °C | CN(C(=O)c1ccc(Cl)c(N)c1)c1ccccc1
233 to 235 °C | NC(c1nnn[nH]1)C1CC1 (stereo not drawn)
56 to 58 °C | N#CSCC(=O)c1ccccc1Cl
145 to 147 °C | COc1ccc(C(=O)NC2CCS(=O)(=O)C2)cc1N (stereo not drawn)
226 to 228 °C | CC(=O)Nc1cccc(C(=O)O)n1
153 to 155 °C | O=Cc1cn(-c2ccccc2)nc1-c1ccncc1
179 to 181 °C | N#Cc1cc2ccccc2nc1Br
82 to 84 °C | O=C(CCl)/N=c1\sccn1Cc1ccccc1Cl
101 to 103 °C | CN1C(=O)CC(CO)C1c1cccc(Cl)c1 (stereo not drawn)
214 to 216 °C | Sc1ccc(Cl)cn1
309 to 311 °C | O=C(O)c1cc(/C=C/c2ccc(Br)cc2)nc2ccc(Br)cc12
68 to 70 °C | OCc1ccc(Oc2ccc(Br)cc2)c(F)c1
190 to 192 °C | CCOC(=O)c1sc2nc(CCl)[nH]c(=O)c2c1C
194 to 196 °C | O=C(O)c1ccc(COc2ccc(Br)cc2)o1
235 to 237 °C | O=C(O)c1nn(-c2cccc(Cl)c2)cc1O

melting point | SMILES
69 to 73 °C | CCCN1CCc2c(sc(N)c2C(=O)OCC)C1
178 to 180 °C | O=c1cc(CCl)c2cc(O)c(O)cc2o1
65 to 67 °C | N#Cc1cccc(Cn2ccnc2)c1
132 to 134 °C | NNc1ccc(C(F)(F)F)nn1
214 to 216 °C | O=C(O)c1csc(-c2ccc(O)cc2)n1
250 to 252 °C | O=C(O)C=Cc1cn(-c2ccccc2)nc1-c1ccc2c(c1)OCCO2
128 to 130 °C | CC1NCCn2c(C(=O)NC3CC3)ccc21 (stereo not drawn)
138 to 140 °C | N#CC1CC(=O)N(c2ccccc2)C1 (stereo not drawn)
151 to 153 °C | O=C(O)c1cc(S(=O)(=O)Cl)cc(Cl)c1Cl
142 to 144 °C | CN(C)C(=O)c1csc(C(=O)CCl)c1
177 to 179 °C | Nn1c(S)nnc1C1CCOCC1
39 to 41 °C | CCC(CC)C(O)CN (stereo not drawn)
247 to 249 °C | O=C(COc1ccccc1)Nc1cc(Cl)ccc1C(=O)O
104 to 106 °C | CC(O)c1ccccc1-c1ccccc1 (stereo not drawn)
229 to 231 °C | O=C(c1c[nH]c2ccccc12)N1CCCC1
85 to 87 °C | Cc1cccc(OC(C)C(=O)O)c1 (stereo not drawn)
40 to 42 °C | Cc1nn2c(C=O)c(C(C)C)nc2s1
197 to 199 °C | CC1(C)Cc2c(sc(N)c2C#N)C(C)(C)N1
119 to 121 °C | CC(C)C(=O)Nc1cccc(N)c1
181 to 183 °C | CCc1ccc(C(=O)O)cc1S(=O)(=O)Cl
225 to 227 °C | CC1Oc2ncccc2NC1=O (stereo not drawn)
108 to 110 °C | CC(C)(C)OC(=O)Nc1cocn1
204 to 206 °C | O=C(O)c1ccc([N+](=O)[O-])c2cccnc12

melting point | SMILES
61 to 63 °C | Cn1nc(-c2ccccc2)c(C=O)c1Cl
38 to 40 °C | N#CCc1cnn(-c2ccccc2)c1
138 to 140 °C | O=C(O)CCCCCNC(=O)NC1CCCCC1
110 to 112 °C | CS(=O)(=O)OC1CCOC2(CCOCC2)C1 (stereo not drawn)
89 to 91 °C | CC(C)(C)OC(=O)CC(C)(C#N)C(=O)O (stereo not drawn)
97 to 99 °C | COC(=O)c1c(Cl)c([N+](=O)[O-])cc([N+](=O)[O-])c1Cl
136 to 138 °C | CC(Nc1ccccn1)c1ccco1 (stereo not drawn)
114 to 116 °C | Cc1cccc(F)c1C(=O)O
126 to 128 °C | CC(C)(C)C1CCCCC(=O)N1 (stereo not drawn)
309 to 311 °C | COc1ccc2nc(O)c(C(=O)O)cc2c1
258 to 260 °C | Cc1cc(O)cc(=O)n1C(C)C(=O)O (stereo not drawn)
171 to 173 °C | CC1Oc2ccc(Cl)cc2NC1=O (stereo not drawn)
152 to 154 °C | CCCCN1C(=O)c2ccc(C(=O)O)cc2C1=O
188 to 190 °C | CC(=O)NCc1ccc(C(=O)O)cc1
249 to 251 °C | Cc1cc(N2CCCS2(=O)=O)ccc1C(=O)O
79 to 83 °C | Cc1ccccc1-c1noc(CC#N)n1
218 to 220 °C | Cc1cc(C(=O)O)ccc1I
77 to 79 °C | CCOC(=O)c1c(N)sc(C)c1CC(C)CC (stereo not drawn)
214 to 216 °C | FC(F)(F)c1nc(S)c2ccccc2n1
169 to 171 °C | NNc1cc(C(F)(F)F)nc(-c2ccccn2)n1
107 to 109 °C | COc1ccccc1-c1ccc(C(C)=O)cc1
74 to 76 °C | ClCc1noc(C2(c3ccccc3)CCOCC2)n1
139 to 141 °C | O=S1(=O)CC(O)C(NCc2ccco2)C1 (stereo not drawn)

melting point | SMILES
216 to 218 °C | O=C1OC(=O)c2cc([N+](=O)[O-])cc3cc([N+](=O)[O-])cc1c23
188 to 190 °C | O=C(O)C1CCN(C(=O)c2cccnc2)CC1
92 to 94 °C | COc1cc(OC)c2c(Cl)ccnc2c1
190 to 192 °C | Cc1ccc(N)cc1NC(=O)c1ccccc1I
68 to 70 °C | O=[N+]([O-])c1cnn(CC2CO2)c1 (stereo not drawn)
143 to 145 °C | O=C(O)c1ccc(OCC(F)(F)F)nn1
229 to 231 °C | O=C(O)CNS(=O)(=O)c1ccc2c(c1)nnn2O
232 to 234 °C | O=C(O)CCc1nc2ccccc2n1-c1ccccc1
38 to 40 °C | CCOC(=O)CNC(=O)OCC(F)(F)F
59 to 61 °C | O=C1C=CC(=O)N1CCO
180 to 182 °C | Brc1ccc(-n2cnnn2)cc1
86 to 88 °C | N#Cc1ccc(Oc2cccc(N)c2)cc1
104 to 106 °C | O=C(O)C(Oc1ccc(Br)cc1F)c1ccccc1 (stereo not drawn)
107 to 109 °C | O=C(CC(=O)c1ccccc1)Nc1ccccc1
106 to 108 °C | O=S(=O)(c1ccc(Cl)nc1)N(Cc1ccccc1)Cc1ccccc1
215 to 217 °C | O=C(O)c1cc(-c2ccccn2)ccc1Cl
163 to 165 °C | OCc1cc2ccccc2nc1Cl
110 to 112 °C | Cc1cccc(NC(=O)C=NO)c1C
109 to 111 °C | CS(=O)(=O)c1ccc(Br)cc1N
195 to 197 °C | COCCn1c(S)nc2cc(Cl)ccc21
280 to 282 °C | NNC(=O)c1ccc(O)c(Cl)c1

SMILES | melting point
Cc1cc(NC(=O)C(C)Cl)on1 (stereo not drawn) | 78 to 80 °C
c1n[nH]cc1C1CCCNC1 (stereo not drawn) | 71 to 73 °C
CC(=O)C(C#N)c1c(F)cccc1Cl (stereo not drawn) | 100 to 102 °C
O=C1NCCCC1Br (stereo not drawn) | 49 to 51 °C
CNC1(c2ccccc2Cl)CCCC(=Cc2cccs2)C1=O (stereo not drawn) | 129 to 131 °C
ClCc1noc(-c2ccoc2)n1 | 77 to 79 °C
CC(=O)c1csc(C(=O)CCl)c1 | 124 to 126 °C
